According to ChEMBL document CHEMBL1133151 (2000):
pIC50: −log10 of the molar value.

Legend:
[1] = molecular target: T1, Voltage-dependent N-type calcium channel subunit alpha-1B (Homo sapiens, UniProt Q00975); test: Inhibition of N-type calcium channel (VSCC) in IMR-32 at 10 uM
Target sequence in this assay (Q00975 whole entry): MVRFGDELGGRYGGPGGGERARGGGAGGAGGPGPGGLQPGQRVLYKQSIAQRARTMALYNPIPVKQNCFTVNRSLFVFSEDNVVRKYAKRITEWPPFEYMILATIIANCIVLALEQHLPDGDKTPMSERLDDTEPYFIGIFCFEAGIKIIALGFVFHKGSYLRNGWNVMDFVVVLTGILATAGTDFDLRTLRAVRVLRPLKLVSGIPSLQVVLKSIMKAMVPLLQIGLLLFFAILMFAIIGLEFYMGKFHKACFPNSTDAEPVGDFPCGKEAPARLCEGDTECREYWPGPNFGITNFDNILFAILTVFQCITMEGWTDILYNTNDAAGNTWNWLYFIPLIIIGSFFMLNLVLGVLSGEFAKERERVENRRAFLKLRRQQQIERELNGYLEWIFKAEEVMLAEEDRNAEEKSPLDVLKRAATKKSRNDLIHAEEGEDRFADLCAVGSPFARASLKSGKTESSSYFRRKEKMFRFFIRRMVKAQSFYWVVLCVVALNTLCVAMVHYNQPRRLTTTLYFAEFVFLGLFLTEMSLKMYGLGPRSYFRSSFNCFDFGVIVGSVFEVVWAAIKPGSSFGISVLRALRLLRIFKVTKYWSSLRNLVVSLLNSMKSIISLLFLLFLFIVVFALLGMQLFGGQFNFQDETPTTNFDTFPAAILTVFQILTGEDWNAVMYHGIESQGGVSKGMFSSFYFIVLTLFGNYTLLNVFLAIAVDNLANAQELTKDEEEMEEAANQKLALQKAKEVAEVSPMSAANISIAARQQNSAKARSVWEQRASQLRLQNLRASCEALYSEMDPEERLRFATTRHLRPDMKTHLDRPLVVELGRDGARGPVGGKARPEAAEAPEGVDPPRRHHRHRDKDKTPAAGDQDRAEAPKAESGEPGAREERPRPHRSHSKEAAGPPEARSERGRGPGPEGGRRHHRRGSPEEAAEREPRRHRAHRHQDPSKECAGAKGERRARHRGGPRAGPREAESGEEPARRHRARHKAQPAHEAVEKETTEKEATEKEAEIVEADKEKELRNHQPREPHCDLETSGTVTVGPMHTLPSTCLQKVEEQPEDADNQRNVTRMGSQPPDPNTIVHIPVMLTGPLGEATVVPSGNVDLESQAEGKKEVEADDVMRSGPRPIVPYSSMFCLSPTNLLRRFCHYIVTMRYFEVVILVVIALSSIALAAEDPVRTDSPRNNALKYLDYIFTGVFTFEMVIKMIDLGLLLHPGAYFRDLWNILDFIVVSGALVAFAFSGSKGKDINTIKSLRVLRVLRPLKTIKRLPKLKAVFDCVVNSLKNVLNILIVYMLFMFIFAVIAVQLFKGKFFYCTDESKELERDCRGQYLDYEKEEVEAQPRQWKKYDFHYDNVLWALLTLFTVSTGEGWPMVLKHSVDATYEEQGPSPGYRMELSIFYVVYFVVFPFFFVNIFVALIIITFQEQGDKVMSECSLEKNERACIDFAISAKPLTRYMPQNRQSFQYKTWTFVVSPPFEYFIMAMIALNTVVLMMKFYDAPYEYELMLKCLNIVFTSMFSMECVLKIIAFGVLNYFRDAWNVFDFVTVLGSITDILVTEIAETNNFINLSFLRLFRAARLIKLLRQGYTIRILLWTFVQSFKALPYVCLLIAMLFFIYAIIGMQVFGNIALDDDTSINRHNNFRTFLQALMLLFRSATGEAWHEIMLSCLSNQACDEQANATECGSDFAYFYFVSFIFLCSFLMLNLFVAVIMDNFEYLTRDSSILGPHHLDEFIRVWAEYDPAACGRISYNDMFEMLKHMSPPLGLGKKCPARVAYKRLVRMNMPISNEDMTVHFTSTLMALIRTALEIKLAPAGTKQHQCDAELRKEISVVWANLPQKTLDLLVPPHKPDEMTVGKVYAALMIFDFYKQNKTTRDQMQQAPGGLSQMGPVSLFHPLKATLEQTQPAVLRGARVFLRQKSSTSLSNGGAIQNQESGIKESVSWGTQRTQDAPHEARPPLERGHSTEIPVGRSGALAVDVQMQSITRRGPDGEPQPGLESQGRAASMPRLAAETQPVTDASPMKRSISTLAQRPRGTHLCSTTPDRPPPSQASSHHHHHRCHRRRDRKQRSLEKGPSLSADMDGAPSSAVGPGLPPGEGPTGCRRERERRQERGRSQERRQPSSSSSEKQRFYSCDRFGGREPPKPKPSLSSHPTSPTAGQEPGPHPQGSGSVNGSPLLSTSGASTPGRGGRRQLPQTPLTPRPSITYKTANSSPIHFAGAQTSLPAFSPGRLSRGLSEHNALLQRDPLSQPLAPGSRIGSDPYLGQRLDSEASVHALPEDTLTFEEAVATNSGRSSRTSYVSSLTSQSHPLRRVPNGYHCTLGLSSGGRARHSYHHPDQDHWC

[2] = molecular target: T2, Voltage-gated L-type calcium channel (Rattus norvegicus, UniProt P22002+Q02485+P27732); test: Inhibition of L-type [Ca2+] channel (VSCC) in rat A7r5 vascular smooth muscle cells
[3] = molecular target: T1, Voltage-dependent N-type calcium channel subunit alpha-1B; test: Inhibition of N-type calcium channel (VSCC) in IMR-32 at 10 uM
Target sequence in this assay (Q00975 whole entry, looked up): as the sequence (Q00975 whole entry) above

[4] = molecular target: T2, Voltage-gated L-type calcium channel; test: Inhibition of L-type [Ca2+] channel (VSCC) in rat A7r5 vascular smooth muscle cells; remark: listed apart in the source

| SMILES | pIC50 [1] | IC50 [2] [µM] | inhibition [3] [%] | Inhibition [4] [%] |
| --- | --- | --- | --- | --- |
| CC(C)Oc1cc(OCCc2ccc(C(=N)N)cc2)cc(OCc2ccccc2CCc2ccc(O)cc2)c1 | 5.48 | 4.2 | – | – |
| CC(C)Oc1cc(OCCc2ccc(C(=N)N)cc2)cc(OCc2ccccc2CCc2cccc(O)c2)c1 | 5.57 | 3 | – | – |
| CC(C)CCOc1cc(OCCCc2ccccc2OCCCc2ccc(O)cc2)cc(OCCc2ccc(C(=N)N)cc2)c1 | – | – | 19 | 69 |
